Like-named read-outs stand apart in the source and are kept apart here.
Columns and labels:
[1] = test system: resistant E. coli isolate; experiment: 23S rDNA copy number by digital PCR on a SlipChip after ciprofloxacin exposure, resistant isolate; assay type: cell-based; conditions: Example 4 resistant isolate, 2.5 ug/mL ciprofloxacin
[2] = test system: ciprofloxacin-susceptible E. coli isolate from a patient with a urinary tract infection; conditions: 0.75 ug/mL ciprofloxacin, 30 minutes, 1:1 BHI:urine, qPCR, 3 replicates
[3] = test system: ciprofloxacin-susceptible E. coli isolate from a patient with a urinary tract infection; conditions: 0.75 ug/mL ciprofloxacin, 30 minutes, sample diluted 1:10, digital PCR, Poisson statistics
[4] = test system: susceptible UTI E. coli isolate; conditions: 2.5 ug/mL ciprofloxacin, 15 minutes, BHI
resistant UTI E. coli = conditions: 2.5 ug/mL ciprofloxacin, 15 minutes, BHI
E. coli isolates = conditions: RNA target; cited from earlier work
E. coli = conditions: after treatment with trimethoprim, susceptible cells, vs baseline level of zero (Slager 2014); cited from earlier work
[5] = test system: E. coli isolates from patients with urinary tract infections and susceptible to various antibiotics; conditions: 1:1 BHI:urine, qPCR

O=C(O)c1cn(C2CC2)c2cc(N3CCNCC3)c(F)cc2c1=O [ciprofloxacin]
change in rDNA copy number [1]: No significant change
Cq of rDNA, treated sample [2]: 22.84+/−0.53
23S rDNA concentration, treated sample [3]: 148,031+/−7,103 copies/mL
23S CT Treated [4]: 20.19/20.84
FeoB CT Treated [4]: 23.3/23.71
dnaAinh CT Treated [4]: 23.93/23.97
recA CT Treated [4]: 24.81/24.65
23S CT Treated (resistant UTI E. coli): 20.22/20.13
FeoB CT Treated (resistant UTI E. coli): 23.19/23.1
dnaAinh CT Treated (resistant UTI E. coli): 23.68/23.89
recA CT Treated (resistant UTI E. coli): 27.19/27.05
Response to Ciprofloxacin: EcHS_A0999 dmsA anaerobic dimethyl sulfoxide reductase, A subunit (E. coli isolates): Same or Downregulated
Response to Ciprofloxacin: EcHS_A1247 pepT peptidase T (E. coli isolates): Same or Downregulated
Response to Ciprofloxacin: EcHS_A1333 narK nitrite extrusion protein 1 (E. coli isolates): Same or Downregulated
Response to Ciprofloxacin: EcHS_A1334 narG nitrate reductase, alpha subunit (E. coli isolates): Same or Downregulated
Response to Ciprofloxacin: EcHS_A1335 narH nitrate reductase, beta subunit (E. coli isolates): Same or Downregulated
Response to Ciprofloxacin: EcHS_A1557 fdnG formate dehydrogenase, nitrate inducible, alpha subunit, selenocysteine-containing (E. coli isolates): Same or Downregulated
Response to Ciprofloxacin: EcHS_A1755 hypothetical protein (E. coli isolates): Same or Downregulated
Response to Ciprofloxacin: EcHS_A1940 DNA damage-inducible protein YebG (E. coli isolates): Significantly Upregulated
Response to Ciprofloxacin: EcHS_A1987 flhC transcriptional activator FlhC (E. coli isolates): Same or Downregulated
Response to Ciprofloxacin: EcHS_A1988 flhD transcriptional activator FlhD (E. coli isolates): Same or Downregulated
Response to Ciprofloxacin: EcHS_A2346 napF ferredoxin-type protein (E. coli isolates): Same or Downregulated
Response to Ciprofloxacin: EcHS_A2835 recA recombinase A (E. coli isolates): Significantly Upregulated
Response to Ciprofloxacin: EcHS_A4283 lexA LexA repressor (E. coli isolates): Significantly Upregulated
Response to Ciprofloxacin: EcHS_A4284 dinF DNA-damage-inducible SOS response protein (E. coli isolates): Significantly Upregulated
Response to Ciprofloxacin: EcHS_A4300 uvrA excinuclease ABC subunit A (E. coli isolates): Significantly Upregulated

COc1cc(Cc2cnc(N)nc2N)cc(OC)c1OC [trimethoprim]
relative DNA copy number as compared to the distance from the origin of replication (oriC) (E. coli): peaks close to the origin of replication

trimethoprim/sulfamethoxazole
fold change in rDNA copy number ([5]; trimethoprim/sulfamethoxazole treatment, 45 minutes): 1.35 fold

O=C1CN(/N=C/c2ccc([N+](=O)[O-])o2)C(=O)N1 [nitrofurantoin]
fold change in rDNA copy number ([5]; nitrofurantoin treatment, 15 minutes): 1.62 fold

CN(C)[C@@H]1C(O)=C(C(N)=O)C(=O)[C@@]2(O)C(O)=C3C(=O)c4c(O)cccc4[C@@](C)(O)[C@H]3C[C@@H]12 [tetracycline]
fold change in rDNA copy number ([5]; tetracycline treatment, 30 minutes): 1.55 fold

— US11542545B2, “Microfluidic measurements of the response of an organism to a drug” (priority 2014, dated 2023)
